The values below come from US20220132847A1, “CINNOLINIUM COMPOUNDS FOR USE IN A METHOD OF CONTROLLING UNWANTED PLANT GROWTH” (SYNGENTA CROP PROTECTION AG, priority 2019, published 2022).

Holding throughout (assay): Post-emergence efficacy, glasshouse
Type in all cases: in vivo

Experiment [1] relates to Amaranthus palmeri (AMAPA). To be noted: Amaranthus palmeri, post-emergence, 312 h, evaluated after 13 days, 100=total damage to plant, 0=no damage to plant, read-out: Control of weed species after post-emergence application, AMAPA; for pest or weed control at 1000 g/ha: Application Rate 1000 g/Ha; for pest or weed control at 500 g/ha: Application Rate 500 g/Ha. A digest of the protocol:
(§1)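 Compound, formulated in acetone and an emulsifier/solvent blend, was diluted to the required rate and sprayed post-emergence onto seedlings raised for 14 days under controlled glasshouse conditions. Injury was rated visually after 13 days on a 0 to 100 scale.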

For experiment [2], the system named is Chenopodium album (CHEAL). To be noted: Chenopodium album, post-emergence, 312 h, evaluated after 13 days, 100=total damage to plant, 0=no damage to plant, read-out: Control of weed species after post-emergence application, CHEAL; for pest or weed control at 1000 g/ha: Application Rate 1000 g/Ha; for pest or weed control at 500 g/ha: Application Rate 500 g/Ha. The method in brief: as §1

In experiment [3] the test system is Digitaria sanguinalis (DIGSA). Particulars: Digitaria sanguinalis, post-emergence, 312 h, evaluated after 13 days, 100=total damage to plant, 0=no damage to plant, read-out: Control of weed species after post-emergence application, DIGSA; for pest or weed control at 1000 g/ha: Application Rate 1000 g/Ha; for pest or weed control at 500 g/ha: Application Rate 500 g/Ha. A digest of the protocol: as §1

In experiment [4] the test system is Echinochloa crus-galli (ECHCG). Particulars: Echinochloa crus-galli, post-emergence, 312 h, evaluated after 13 days, 100=total damage to plant, 0=no damage to plant, read-out: Control of weed species after post-emergence application, ECHCG; for pest or weed control at 1000 g/ha: Application Rate 1000 g/Ha; for pest or weed control at 500 g/ha: Application Rate 500 g/Ha. The method in brief: as §1

In experiment [5] the test system is Eleusine indica (ELEIN). Particulars: Eleusine indica, post-emergence, 312 h, evaluated after 13 days, 100=total damage to plant, 0=no damage to plant, read-out: Control of weed species after post-emergence application, ELEIN; for pest or weed control at 1000 g/ha: Application Rate 1000 g/Ha; for pest or weed control at 500 g/ha: Application Rate 500 g/Ha. The method in brief:
as §1

In experiment [6] the test system is Euphorbia heterophylla (EPHHL). Particulars: Euphorbia heterophylla, post-emergence, 312 h, evaluated after 13 days, 100=total damage to plant, 0=no damage to plant, read-out: Control of weed species after post-emergence application, EPHHL; for pest or weed control at 1000 g/ha: Application Rate 1000 g/Ha; for pest or weed control at 500 g/ha: Application Rate 500 g/Ha. The method in brief: as §1

The subject of experiment [7] is Ipomoea hederacea (IPOHE). To be noted: Ipomoea hederacea, post-emergence, 312 h, evaluated after 13 days, 100=total damage to plant, 0=no damage to plant, read-out: Control of weed species after post-emergence application, IPOHE; for pest or weed control at 1000 g/ha: Application Rate 1000 g/Ha; for pest or weed control at 500 g/ha: Application Rate 500 g/Ha. The method in brief:
as §1

In experiment [8] the test system is Lolium perenne (LOLPE). To be noted: Lolium perenne, post-emergence, 312 h, evaluated after 13 days, 100=total damage to plant, 0=no damage to plant, read-out: Control of weed species after post-emergence application, LOLPE; for pest or weed control at 1000 g/ha: Application Rate 1000 g/Ha; for pest or weed control at 500 g/ha: Application Rate 500 g/Ha. A digest of the protocol:
as §1

The subject of experiment [9] is Setaria faberi (SETFA). Particulars: Setaria faberi, post-emergence, 312 h, evaluated after 13 days, 100=total damage to plant, 0=no damage to plant, read-out: Control of weed species after post-emergence application, SETFA; for pest or weed control at 1000 g/ha: Application Rate 1000 g/Ha; for pest or weed control at 500 g/ha: Application Rate 500 g/Ha. The method in brief: as §1

`CC[n+]1cc(P(=O)([O-])O)c2ccccc2n1` [Compound A66]: the pest or weed control at 1000 g/ha in experiment [1] was 40%; in experiment [2], 30%; in experiment [3], 90%; in experiment [4], 60%; in [5], 70%; in experiment [6] it was 80%. Besides, the pest or weed control at 1000 g/ha was determined as 60% in experiment [7], 10% in [8] and 70% in experiment [9].
For the compound `O=P([O-])(O)c1c[n+](CCO)nc2ccccc12` [Compound A67, hydroxy-[2-(2-hydroxyethyl)cinnolin-2-ium-4-yl]phosphinate], the pest or weed control at 1000 g/ha was 30% in [1]; 60% in experiment [2]; 90% in experiment [3]; 20% in [4]; 10% in experiment [5]; 30% in [6]. For the same compound, the figures for the pest or weed control at 1000 g/ha in experiment [7], in experiment [8] and in [9] were 30%, 0% and 50%, respectively.
For the compound `COP(=O)([O-])c1c[n+](CCO)nc2ccccc12` [Compound A68, [2-(2-hydroxyethyl)cinnolin-2-ium-4-yl]-methoxy-phosphinate], the pest or weed control at 1000 g/ha was 100% in [1]; 100% in experiment [2]; 100% in experiment [3]; 60% in experiment [4]; 100% in [5]; 100% in [6]. Besides, the pest or weed control at 1000 g/ha in experiment [7] came to 100%; in experiment [8], 40%; in [9] it was 90%.
Take `CCOP(=O)(O)c1c[n+](CCO)nc2ccccc12` [Compound A69]: the pest or weed control at 500 g/ha in experiment [1] came out at 100%; in [2], 90%; in experiment [3], 100%; in experiment [4], 70%; in [5], 90%; in experiment [6], 100%. In addition, the pest or weed control at 500 g/ha is 90% in [7], 40% in [8] and 90% in [9].
In the case of `COP(=O)(OC)c1c[n+](CCOS(=O)(=O)[O-])nc2ccccc12` [Compound A70], the pest or weed control at 1000 g/ha amounted to 50% in experiment [1]; 60% in experiment [2]; 70% in experiment [3]; 70% in experiment [4]; 80% in experiment [5]; 60% in [6]. The pest or weed control at 1000 g/ha in experiment [7] was 30%; in experiment [8], 10%; in experiment [9], 20%.
Turning to `CCOP(=O)(O)c1c[n+](CCO)nc2ccccc12` [Compound A71], the pest or weed control at 1000 g/ha amounted to 100% in experiment [1]; 90% in experiment [2]; 90% in experiment [3]; 30% in experiment [4]; 90% in experiment [5]; 100% in experiment [6]. Also, the pest or weed control at 1000 g/ha in experiment [7] came out at 80%; in experiment [8] it was 40%; in experiment [9] it was 100%.
As to `CC(C)OP(=O)([O-])c1c[n+](C(C)(C)C)nc2ccccc12` [Compound A74], the pest or weed control at 500 g/ha in [1] turned out to be 100%; in experiment [2], 60%; in experiment [3], 20%; in experiment [4], 10%; in experiment [5], 60%; in experiment [6] it was 50%. In addition, the pest or weed control at 500 g/ha in [7] worked out at 50%; in [8] it was 30%; in experiment [9] it was 20%.
Turning to `CCOP(=O)([O-])c1c[n+](C(C)(C)C)nc2ccccc12` [Compound A75, (2-tert-butylcinnolin-2-ium-4-yl)-ethoxy-phosphinate], the pest or weed control at 500 g/ha in experiment [1] stood at 50%; in experiment [2], 50%; in [3] it was 30%; in [4], 70%; in experiment [5] it was 70%; in experiment [6] it was 30%. Further, the pest or weed control at 500 g/ha in [7], in [8] and in experiment [9] was 30% in each case.
For `CC(C)OP(=O)([O-])c1c[n+](C(C)C)nc2ccccc12` [Compound A76, isopropoxy-(2-isopropylcinnolin-2-ium-4-yl)phosphinate], the pest or weed control at 500 g/ha came to 100% in experiment [1]; 90% in experiment [2]; 80% in experiment [3]; 70% in experiment [4]; 100% in experiment [5]; 100% in experiment [6]. For the same compound, the pest or weed control at 500 g/ha stood at 90% in [7], 50% in experiment [8] and 80% in [9].
Consider `CCOP(=O)([O-])c1c[n+](C(C)C)nc2ccccc12` [Compound A77], for which the pest or weed control at 500 g/ha amounted to 100% in experiment [1]; 90% in experiment [2]; 90% in experiment [3]; 50% in [4]; 100% in experiment [5]; 80% in experiment [6]. Further, the pest or weed control at 500 g/ha in experiment [7] came out at 90%; in [8], 30%; in [9] it was 90%.
`C[n+]1cc(P(=O)([O-])O)c2ccccc2n1` [Compound A78, hydroxy-(2-methylcinnolin-2-ium-4-yl)phosphinate]: the pest or weed control at 1000 g/ha in [1] worked out at 30%; in experiment [2], 10%; in experiment [3] it was 50%; in [4], 50%; in experiment [5] it was 40%; in [6] it was 70%. Further, the pest or weed control at 1000 g/ha in [7] was 10%; in experiment [8] it was 10%; in experiment [9], 40%.
